Results taken from patent US7989642B2, “Process for producing powdered compositions containing highly unsaturated fatty acid esters of ascorbic acid and powdered compositions containing the esters” (Suntory Holdings Limited, priority 2003, dated 2011).

Assay: Test for the stability against oxidation of arachidonic acid moiety (storage at 37° C., humidity 12%, gas chromatography of non-oxidized arachidonic acid)
Type: physicochemical
Conditions: stored at 37° C.
Procedure: The resulting microcapsulated powder of 6-O-arachidonoyl-ascorbate was left in the air at 37° C. and a humidity of 12% for 30 days to determine the stability of the powder against oxidation (See, Example 4 below). During the 30-day period, samples were taken at predetermined intervals and were hydrolyzed into methyl arachidonate, which in turn was subjected to gas chromatography to determine the amount of non-oxidized arachidonic acid. As shown, the stability of any polysaccharides used was improved by powdering. The increase in the stability against oxidation was particularly significant in gum Arabic and soybean polysaccharide.
240 mg of each powder product (microcapsule) obtained in each example was placed in a flat bottom glass container (1.5 cm inner diameter, 3 cm high). Using an aqueous solution of lithium chloride, the humidity inside the container was maintained at 12% and the powder was stored at 37° C. The cup was taken out at predetermined intervals and the 6-O-arachidonoyl-ascorbate encapsulated in the microcapsules was hydrolyzed, followed by esterification with methyl groups. The amount of non-oxidized arachidonic acid was determined by gas chromatography (GC-14B, manufactured by SHIMADZU CORP.). The samples were analyzed using methyl myristate as an internal standard. […]

| Compound | proportion of the arachidonic acid left unoxidized (after 30 days, relative to Day 0) [%] | disappearance of non-oxidized arachidonic acid |
| --- | --- | --- |
| 6-O-arachidonoyl-ascorbate | 30 | – |
| CCCCC/C=C\C/C=C\C/C=C\C/C=C\CCCC(=O)O [non-capsulated arachidonic acid, arachidonic acid] | – | disappeared in a few hours |
